According to US10093629B2, “Heterocyclic compounds and their use as retinoid-related orphan receptor (ROR) gamma-T inhibitors” (Takeda Pharmaceutical Company Limited, priority 2014, dated 2018):

Legend:
RORγt [1] = molecular target: T1, RORγt (Homo sapiens, UniProt P51449); assay: Jurkat reporter test (human IL-17 ROR response element luciferase, RORγt vector); assay type: cell-based; conditions: Jurkat, test compound 3 μM; Jurkat cells; read-out: luminescence level inhibitory rate at test compound 3 μM
T1 sequence (P51449 1-497 isoform P51449-2): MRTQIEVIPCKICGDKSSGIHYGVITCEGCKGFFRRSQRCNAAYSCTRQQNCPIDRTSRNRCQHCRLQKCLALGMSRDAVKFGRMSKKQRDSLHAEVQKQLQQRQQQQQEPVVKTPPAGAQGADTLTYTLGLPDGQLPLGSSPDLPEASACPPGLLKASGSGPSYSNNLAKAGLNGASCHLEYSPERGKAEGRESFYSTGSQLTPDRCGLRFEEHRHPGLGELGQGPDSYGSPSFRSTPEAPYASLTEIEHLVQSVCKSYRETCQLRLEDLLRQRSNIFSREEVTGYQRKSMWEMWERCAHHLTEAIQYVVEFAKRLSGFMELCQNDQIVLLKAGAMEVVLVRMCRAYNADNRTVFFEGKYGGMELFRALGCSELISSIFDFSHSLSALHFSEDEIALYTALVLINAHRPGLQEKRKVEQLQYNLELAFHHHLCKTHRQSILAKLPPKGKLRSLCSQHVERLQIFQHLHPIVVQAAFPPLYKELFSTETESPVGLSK
Summary of the method: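 Luminescence (Bright-Glo, 10 min, RT) was measured after overnight compound treatment of electroporated Jurkat cells (1350 V, 10 ms interval, 3 pulses). The reaction medium was RPMI with 10% lipid-reduced FCS, 10 mM HEPES (pH 7.5) and 5 μM lovastatin.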

RORγt [2] = molecular target: T1, RORγt; assay: Cofactor recruitment test (Alpha Screen, biotinylated SRC-1 peptide); assay type: biochemical; conditions: test compound 1 μM; read-out: signal value inhibitory rate at test compound 1 μM
Procedure: Cofactor Recruitment Test
Cofactor recruitment test was performed by Alpha Screen (Histidine Detection Kit, PerkinElmer) method. First, a test compound was diluted with an assay buffer (50 mM Tris-HCl (pH 7.5), 50 mM KCl, 1 mM DTT, 0.1% BSA) and added to a 384 well plate by 5 μL. […] The mixture was stood in a dark place for 1 hr, and the signal value was measured by Envision (PerkinElmer).

[3] = test system: IL-23-induced mouse psoriasis model; assay: IL-23-induced mouse psoriasis model; assay type: in vivo; conditions: Balb/c mice, versus the negative control group; for percent inhibition of IL-17A expression: ear tissue
Procedure: Effect in an IL-23-Induced Mouse Psoriasis Model
Mouse IL-23 (500 ng/15 μL, R&D) or PBS (15 μL, negative control group) was administered intradermally in the ear of Balb/c mice (Charles River Japan, male, 7 weeks old) 5 times every other days. Seven hr after IL-23 administration at 8 days after the initial administration (final administration), the mice were anesthetized with isoflurane, and ear thickness was measured with calipers. After the ear thickness was measured, the ear was resected, tissue 8 mm in diameter was punched from an area centering on the IL-23 injection site, and the tissue was weighed. The punched ear tissue was cut in half, and one half was immersion-fixed in 10% neutral buffer formalin solution for use in histopathological evaluation. The other half was immersed in RNAlater (QIAGEN) for at least 18 hr for use in an evaluation of the IL-17A mRNA expression level. The test compound was suspended in 0.5% methylcellulose and administered orally twice daily on consecutive days from 30 min before the initial IL-23 administration to 30 min before the final IL-23 administration.
The change in ear thickness in this model was evaluated by calculating the difference in measured thickness between before IL-23 administration and 7 hr after the final IL-23 administration. In addition, the formalin-fixed tissue was embedded and sectioned, then stained with hematoxylin-eosin. The degree of acanthosis was then evaluated qualitatively by microscopy (classified with a score of 0 to 4). RNA extraction from the ear tissue and quantitative PCR were performed as follows. As described above, ear tissue treated with RNAlater (QIAGEN) was homogenized in 350 μL of RLT buffer (RNeasy mini kit, QIAGEN) and treated (55° C., 10 min) with Proteinase K (QIAGEN). Total RNA was then extracted according to the RNeasy mini kit protocol. The RNA thus obtained was reverse transcribed into cDNA using the High-Capacity RNA-to-cDNA kit (Applied Biosystems), and the expression of each gene was measured by real-time PCR (Viia7™, Applied Biosystems). The PCR buffer used was TaqMan Fast Advanced Master Mix (Applied Biosystems), and TaqMan Gene Expression Assays (Applied Biosystems) Mm00439618_m1 (IL-17A) and 4352341E (β-actin) were used to detect the genes. The IL-17A gene expression level was normalized to the β-actin gene expression level, and the percent inhibition of IL-17A gene expression with the test compound was then calculated.
The results (percent inhibition of ear thickness, acanthosis score and IL-17A gene expression with oral administration of the test compound) measured by the above-mentioned method are shown in Table 10.

[4] = test system: IL-17 production in human blood; assay: Effect on IL-17 production in human blood; assay type: cell-based; conditions: 72 h; 10 μM test compound; human peripheral blood, IL-23 and Dynabeads stimulation, 3 days; read-out: percent inhibition at 10 μM (IL-17 production)
Procedure: Effect on IL-17 Production in Human Blood
The inhibitory effect of the test compound on IL-17 production in human blood was evaluated as follows. First, 150 μL of peripheral blood collected from healthy individuals using heparinized vacuum blood collection tubes was dispensed into each well of a 96-well plate (Corning), and 45 μL of RPMI 1640 medium (Gibco) containing 10% fetal bovine serum (FBS, Hyclone) and 30 μL of the test compound diluted with the medium were added to each well. The plate was then cultured for 30 min at 37° C. The cells were subsequently stimulated by adding 30 μL of 100 ng/mL human IL-23 (R&D) and 45 μL of Dynabeads Human (Invitrogen) to each well and culturing the plate for 3 days at 37° C. In wells without stimulation, 75 μL of RPMI 1640 medium containing 10% FBS was added instead of the IL-23 and Dynabeads solution. After culturing for 3 days, the culture supernatant was collected, and the amount of IL-17 in the supernatant was measured using an IL-17 ELISA kit (R&D).
The results (percent inhibition of IL-17 production with 10 μM of the test compound) measured by the above-mentioned method are shown in Table 8.

RORγt [5] = molecular target: T1, RORγt; assay: RORγt binding test using fluorescent-labeled synthetic ligand (TR-FRET); conditions: test compound 1 μM; read-out: binding inhibitory rate of fluorescent-labeled synthetic ligand to RORγt at test compound 1 μM
IL-17A gene expression = assay: Effect on IL-23-induced cytokine expression in mice; assay type: in vivo, mouse; conditions: 10 mg/kg oral, 30 min before and 8 hr after IL-23; ear of Balb/c mice; versus the negative control group
Procedure: Effect on IL-23-Induced Cytokine Expression in Mice
A mouse IL-23 solution (500 ng/10 μL, prepared by Takeda Pharmaceutical Company Limited) or PBS (10 μL, negative control group) was administered intradermally in the ear of Balb/c mice (Charles River Japan, male, 7 weeks old). Twenty-four hr after administration, the ear was resected under isoflurane anesthesia. The test compound was suspended in 0.5% methylcellulose and administered orally 30 min before and 8 hr after IL-23 administration.
RNA extraction from the ear tissue and quantitative PCR were performed as follows. Specifically, ear tissue 5 mm in diameter was punched from an area of the resected ear centering on the IL-23 injection site, and the tissue was immersed in RNAlater (QIAGEN) for at least 18 hr. The RNAlater-treated ear tissue was homogenized in 350 μL of RLT buffer (RNeasy mini kit, QIAGEN) and treated (55° C., 10 min) with Proteinase K (QIAGEN). Total RNA was then extracted according to the RNeasy mini kit protocol. The RNA thus obtained was then reverse transcribed into cDNA using the High-Capacity RNA-to-cDNA kit (Applied Biosystems), and the amount of each gene expressions was measured by real-time PCR (Viia7™, Applied Biosystems). The PCR buffer used was TaqMan Fast Advanced Master Mix (Applied Biosystems), and TaqMan Gene Expression Assays (Applied Biosystems) Mm00439618_m1 (IL-17A) and 4352341E (β-actin) were used for each gene detection. The IL-17A gene expression level was normalized to the β-actin gene expression level, and the percent inhibition of IL-17A gene expression with the test compound was then calculated.
The results (percent inhibition of IL-17A gene expression with oral administration of the test compound) measured by the above-mentioned method are shown in Table 9.

SMILES	inhibition at 3 µM (RORγt [1])	inhibition at 1 µM (RORγt [2])	percent inhibition of acanthosis score ([3]; 10 mg/kg oral twice daily)	percent inhibition of ear thickness ([3]; 10 mg/kg oral twice daily)	percent inhibition of IL-17A expression ([3]; 10 mg/kg oral twice daily)	inhibition at 10 µM [4]	inhibition at 1 µM (RORγt [5])	percent inhibition of acanthosis score ([3]; 1 mg/kg oral twice daily)	percent inhibition of ear thickness ([3]; 1 mg/kg oral twice daily)	percent inhibition of IL-17A expression ([3]; 1 mg/kg oral twice daily)	percent inhibition of IL-17A gene expression (IL-17A gene expression)
COc1ccc2c(n1)CCN(C(=O)[C@H]1C[C@@H]1CC(=O)O)[C@H]2C(=O)Nc1cc(F)c2c(c1)CCC2(C)C [Example 6, ((1R,2S)-2-(((5R)-5-((7-fluoro-1,1-dimethyl-2,3-dihydro-1H-inden-5-yl)carbamoyl)-2-methoxy-7,8-dihydro-1,6-naphthyridin-6(5H)-yl)carbonyl)cyclopropyl)acetic acid]	97%	54%	39%	64%	111%	86.6%	102%	–	–	–	–
COc1ccc2c(n1)CCN(C(=O)[C@H]1C[C@@H](C(=O)O)C1)[C@H]2C(=O)Nc1cc(F)c2c(c1)CCC2(C)C [Example 10, cis-3-(((5R)-5-((7-fluoro-1,1-dimethyl-2,3-dihydro-1H-inden-5-yl)carbamoyl)-2-methoxy-7,8-dihydro-1,6-naphthyridin-6(5H)-yl)carbonyl)cyclobutanecarboxylic acid]	–	–	–	–	–	89.7%	–	47%	52%	91%	87%
COCc1ccc2c(c1)CCN(C(=O)[C@H]1C[C@@H](CC(=O)O)C1)[C@H]2C(=O)Nc1cc(F)c2c(c1)CCC2(C)C [Example 19, (cis-3-(((1R)-1-((7-fluoro-1,1-dimethyl-2,3-dihydro-1H-inden-5-yl)carbamoyl)-6-(methoxymethyl)-3,4-dihydroisoquinolin-2(1H)-yl)carbonyl)cyclobutyl)acetic acid]	99%	82%	29%	40%	94%	94.1%	101%	–	–	–	–
